Assay results from US20070037848A1, “Treatment of neurological conditions” (priority 2003, published 2007).
Entries after “also recorded” stand apart in the source; their conditions may differ.

Experiments:
plasma Aβ42 = assay: Phase II clinical trial: plasma Aβ42; type: in vivo, human
Protocol: (§1) Screening procedures consisted of a full medical history, full physical, neurological and ophthalmic examination, blood and urine tests and psychometric tests (ADAS-Cog, MMSE) to confirm the patient's eligibility for the study. Nerve conduction tests and visual evoked responses were conducted between the screening and baseline visits to provide a baseline measurement and to exclude patients with undiagnosed peripheral neuropathies or visual disturbances. Blood was collected for ApoE allotyping and determination of baseline plasma levels of CQ, metals and Aβ prior to randomization.
(§2) The primary efficacy variable was a change in the baseline score on the AD Assessment Scale (ADAS), which was conducted at baseline and at weeks 4, 12, 24 and 36. This readout was chosen for comparability of treatment effects with current therapeutic agents, such as donepezil, for which efficacy trials also used ADAS as their primary outcome measure (Rogers et al., Neurology 50: 136-145, 1998). Although numerous neuropsychological tests could be considered as secondary measures, it was necessary to avoid fatiguing the subjects at review. Therefore the only other cognitive test performed was the Mini-Mental State Exam (MMSE), which is well characterized and easily implemented. […]

plasma Aβ40 = assay: Phase II clinical trial: plasma Aβ40; type: in vivo, human
Protocol: as §1, §2

plasma Zn = assay: Phase II clinical trial: plasma zinc; type: in vivo, human
Protocol: as §1, §2

Aβ accumulation = settings: cited from earlier work
plasma Cu = assay: Phase II clinical trial: plasma copper; type: in vivo, human; settings: administration of CQ vs placebo
Protocol: as §1, §2

[1] = test system: patients with probable AD; assay: Phase II clinical trial of clioquinol: cognitive function (ADAS-Cog); type: in vivo, human; settings: for increase in ADAS-Cog scores: CQ group
Protocol: On the basis of the pre-clinical data, a Phase II clinical trial was prepared of CQ for the treatment of AD. Inclusion criteria for this Phase II study targeted a region on the ADAS-cog scale (20-45) where patients are moderately demented, still living at home, but anticipating an accelerated deterioration as part of the natural history of AD, over the next 12 months. Because the primary outcome was efficacy, a triple-blind design was chosen.
Criteria for inclusion in the study were:— • (a) informed consent; • (b) a diagnosis of probable AD by NINCDS-ADRDA criteria (McKhann et al., Neurology 34: 939-944, 1984); • (c) AD Assessment Scale-Cognitive (ADAS-Cog) score of 20-45 inclusive (Rosen et al., Am. J. Psychiatry 141: 1356-1364, 1984); • (d) Mini Mental State Examination (MMSE) score of 10-24 inclusive (Folstein et al., J. Psychiatr. Res. 12: 189-198, 1975); • (e) on donepezil hydrochloride 5 mg or 10 mg for at least six months; • (f) relative or carer willing and able to support the trial; • (g) able to complete trial examinations; and • (h) primary sensorial functions intact.
The study was a triple blind, placebo-controlled, randomized design. Thirty-six patients and their carers were recruited to participate, with patients being randomized to receive either CQ or placebo; there were 18 patients in each arm. The duration of the study was 36 weeks. CQ dosage was 125 mg twice daily from weeks 0-12, increased to 250 mg twice daily from weeks 13-24, and finally, 375 mg twice daily from weeks 25-36.
as §2, with “implemented. The Clinician's Interview Based Impression of Change (CIBIC), a subjective observational index also used in efficacy trials of acetylcholinesterase inhibitors, was conducted at baseline and at weeks 12, 24 and 36 by an independent researcher who was not part of the study team. Blood samples for measurement of plasma Aβ and plasma zinc and copper were all taken four weekly, by antecubital fossa venepuncture.” for “implemented.”

[2] = Nerve conduction studies (peripheral nerve latency) in the Phase II trial; type: in vivo, human
Protocol: as §1
(§3) Standard adverse event reporting to a safety monitoring committee, consisting of physicians independent of the study, was conducted to review adverse events at three monthly intervals and on an emergent basis. Following baseline, safety visits were conducted at weeks 2, 4, 8, 12, 16, 20, 24, 26, 28, 32 and 36. The patient and carer were questioned about any changes which might have occurred in the patient's health or medications since the last visit. Standard biochemical, renal and liver function, full blood examination, serum vitamin B12 and folate levels, blood pressure and weight were documented at each visit. A neurological examination was conducted at each visit to assess for peripheral neuropathy and optic neuropathy, and visual evoked responses, nerve conduction studies and a full ophthalmic examination (visual acuity, colour vision, fundal examination and visual field) were conducted at screening, at week 18 and at two weeks after trial completion. An ECG was performed at baseline and at weeks 12 and 24.

[3] = Safety measures / adverse event reporting in the Phase II trial; type: in vivo, human
Protocol: as §3

Structure (SMILES): Oc1c(I)cc(Cl)c2cccnc12 [CQ, iodochlorhydroxyquin]
- change in plasma Aβ42 (plasma Aβ42; CQ-treated group, lowering from week 20 onwards, placebo increased): declined; also recorded: very significant lowering
- plasma Aβ42 changes by severity (plasma Aβ42; less-severely affected individuals compared with more-severely affected): more evident
- plasma Aβ40 levels (plasma Aβ40; compared with Aβ42 trends, CQ vs placebo): overall similar trends
- plasma Aβ40, placebo vs CQ groups (plasma Aβ40; weeks 8, 32 and 36, less-severely affected groups): significant differences
- rise of plasma Zn levels (plasma Zn; CQ, Phase II trial): 30%
- total plasma Zn (plasma Zn; administration of CQ vs placebo): significant elevation
- effect on Aβ deposits in transgenic mice (Aβ accumulation; 30 mg/kg body weight by gavage (Cherny et al., 2001)): effective
- inhibiting Aβ accumulation in transgenic mice (Aβ accumulation; 20-30 mg/kg orally daily, five days per week, two to three months): markedly effective
- plasma Cu (plasma Cu): no effect
- increase in ADAS-Cog scores ([1]; less-severely affected patients): only small increases
- increase in ADAS-Cog scores ([1]; more severely-affected patients): negligible increase
- effect of treatment on ADAS-Cog ([1]; more-severely affected group (baseline ADAS-Cog≧25), CQ vs placebo): statistically significant; also recorded: significant effect on preventing cognitive decline
- primary clinical outcome of efficacy, ADAS-Cog change from baseline ([1]; whole cohort, CQ vs placebo, 36 weeks, on donepezil): trend
- calf latency (baseline)-calf latency (week 20), Mean within-group change ([2]; Pair 1, paired difference, unit assumed): 0.575 ms
- calf latency (baseline)-calf latency (week 36), Mean within-group change ([2]; Pair 2, paired difference, in ms (unit assumed)): .7937
- wrist 1 latency week 1-wrist 1 latency week 20, Mean within-group change ([2]; Pair 3, paired difference, in ms (unit assumed)): .5824
- wrist 1 latency week 1-wrist 1 latency week 36, Mean within-group change ([2]; Pair 4, paired difference, in ms (unit assumed)): .7875
- wrist 2 latency week 1-wrist 2 latency week 20, Mean within-group change ([2]; Pair 5, paired difference, in ms (unit assumed)): 1.000E−01
- wrist 2 latency week 1-wrist 2 latency week 36, Mean within-group change ([2]; Pair 6, paired difference, in ms (unit assumed)): .2429
- between group differences in nerve conduction parameters ([2]; detailed analyses, to week 36): no significant between group differences
- risk of displaying abnormal nerve conduction ([2]; subjects on CQ vs placebo): increased risk
- overall safety and tolerability ([3]; 36 weeks, 250-750 mg/day): safe and well tolerated
- non-attributable serious adverse event (hospitalization) ([3]; CQ arm): syncope due to impaired cardiac function
- albumin ([3]; CQ arm, group LFT changes): fell significantly
- γ-GT, AST, ALT and bilirubin ([3]; CQ arm, group LFT changes): small significant elevation
- reduction in haemoglobin ([3]; CQ arm, week 24, p=0.003): 6.88 g/L
- reduction in haemoglobin ([3]; CQ arm, week 36, p=0.03): 5.5 g/L
- adverse haematological events ([3]; CQ-treated subjects): no adverse haematological events
- risk of impairment in visual acuity, colour vision, visual fields or fundoscopic abnormalities ([3]; between the two arms, McNemar's test): no significant differences
- overt symptoms or signs of impaired liver function ([3]; changes at week 24 returning to normal by week 36): No subject developed any overt symptoms or signs of impaired liver function
- likelihood of changes in liver function tests (LFT) ([3]; patients on CQ vs placebo): more likely
- likelihood to develop diarrhoea ([3]; patients on CQ vs placebo): less likely
- Abdominal pain, subjects ([3]; treatment arm n = 18): 2
- Constipation, subjects ([3]; treatment arm n = 18): 2
- Decreased vitamin B12, subjects ([3]; treatment arm n = 18): 0
- Diarrhoea, subjects ([3]; treatment arm n = 18): 1
- Impaired nerve conduction, subjects ([3]; treatment arm n = 18): 3
- Impaired reflexes, subjects ([3]; treatment arm n = 18): 1
- Lymphopoenia, subjects ([3]; treatment arm n = 18): 0
- Microalbuminurea, subjects ([3]; treatment arm n = 18): 5
- Nausea, subjects ([3]; treatment arm n = 18): 2
- Numb legs, subjects ([3]; treatment arm n = 18): 2
- Postural Dizziness, subjects ([3]; treatment arm n = 18): 7
- Postural Hypotension, subjects ([3]; treatment arm n = 18): 12
- Postural Tachyardia, subjects ([3]; treatment arm n = 18): 12
- Raised bilirubin, subjects ([3]; treatment arm n = 18): 2
- Raised γGT, subjects ([3]; treatment arm n = 18): 2
- Subjects with +1 postural symptom ([3]; treatment arm n = 18): 13
- Subjects with =1 GI symptom ([3]; treatment arm n = 18): 5
- Subjects with =1 abnormal LFT ([3]; treatment arm n = 18): 4
- Subjects with =1 neurological symptom ([3]; treatment arm n = 18): 6
- Mean number discrete Adverse Events Per subject ([3]; treatment arm, 61/18): 3.38
- number of attributable events reported ([3]; treatment group, n = 18): 61
- Abdominal pain, Relative Risk ([3]; treatment vs placebo): 2.0
- Diarrhoea, Relative Risk ([3]; treatment vs placebo): 0.25
- Impaired nerve conduction, Relative Risk ([3]; treatment vs placebo): 3.0
- Impaired reflexes, Relative Risk ([3]; treatment vs placebo): 0.5
- Microalbuminurea, Relative Risk ([3]; treatment vs placebo): 1.00
- Postural Dizziness, Relative Risk ([3]; treatment vs placebo): 2.33
- Postural Hypotension, Relative Risk ([3]; treatment vs placebo): 1.09
- Raised γGT, Relative Risk ([3]; treatment vs placebo): 2.0
- Subjects with +1 postural symptom, Relative Risk ([3]; treatment vs placebo): 0.93
- Subjects with =1 GI symptom, Relative Risk ([3]; treatment vs placebo): 1.25
- Subjects with =1 abnormal LFT, Relative Risk ([3]; treatment vs placebo): 4.0
- Subjects with =1 neurological symptom, Relative Risk ([3]; treatment vs placebo): 1.5
- Mean number discrete Adverse Events Per subject, Mean diff ([3]; treatment vs placebo, p = 0.327): 0.611
